We go through two compounds from patent US6943000B2, “JNK3 modulators and methods of use” (priority 1997, dated 2005).

What all share (assay type): in vivo, mouse
Data set [1] deals with c-Jun phosphorylated at Ser-73. Description: KA-induced phosphorylation of c-Jun in hippocampus (immunocytochemistry). As to conditions: KA 30 mg/kg i.p., two hours after injection. As to the method:
To further define this phenomenon, the distribution of KA-induced c-Fos and c-Jun immunoreactivity along the synaptic circuit of the hippocampus was examined. In these experiments, homozygous mutant and control wild-type mice were killed and fixed by transcardial perfusion of 4% paraformaldehyde at 2 or 6 hours after the injection of KA (30 mg/kg, i.p.). Brains from both groups were removed, post-fixed for one hour, and sectioned on a Vibratome ([…]). Tissue sections were processed by immunocytochemistry to detect the expression of c-June (Santa Cruz, cat# sc-45), c-Fos (Santa Cruz, cat# sc-52), and phospho-specific c-Jun (Ser-73) (New England Biolabs, #9164S). Sections were floated in a solution of the primary antibody (diluted 200× in PBS) and incubated overnight at room temperature. Secondary antibody incubation, avidin-biotin conjugated peroxidase (Vectastain Elite ABC kit, Vector Lab.), and DAB (3, 3′-diaminobenzidine, Sigma) reactions were performed using standard procedures (Hsu et al., supra). In the absence of KA, there was no detectable c-Fos expression and only a few c-Jun-positive cells within the dentate gyrus. […]
In addition, there was a dynamic change of the distribution of phosphorylated c-Jun in the wild type mouse hippocampus. […] In contrast, no labeling of phosphorylated c-Jun was detected in the JNK3(−/−) mice at the same time point. […]

Data set [2] relates to hippocampal neurons. Nature of the data set: Kainate-induced neuronal damage in the hippocampus (Nissl's stain, GFAP, TUNEL, toluidine stain). As to conditions: KA 45 mg/kg, JNK2(−/−) mice as printed.
For data set [3], the system named is hippocampal neurons. The data set is described as above. As to the method: These experiments were performed as follows. Wild-type and JNK3 (−/−) mice were killed and fixed by transcardial perfusion of 4% paraformaldehyde and 1.5% glutaraldehyde three days after the injection of KA (30 mg/kg, i.p.). Semithin and thin sections of brain were prepared using a Vibratome and embedded in Epon. Tissue blocks were prepared using a microtome with a diamond tube for 1 μm-thick semithin sections examined by toluidine blue staining, and for ultrathin sections examined by electron microscopy. Nissl's stain was used for initial examination of damage to the hippocampus (Kluver et al., J. Neuropath. Exp. Neuro. 12:400-403, 1953). GFAP immunocytochemistry was also used to assess cell destruction in the hippocampus (Hsu et al., supra). Nissl's staining was also performed as described above. TUNEL assays, used to evaluate apoptosis, were performed using cryostat sections (50 μm) of cerebral hemispheres that were cryoprotected with sucrose. The TUNEL assay was modified from the terminal deoxynucleotidyl transferase (TdT)-mediated dUTP nick end labeling assay (Gavrieli et al., J. Cell. Biol. 119:493-501, 1992). Briefly, tissue sections, directly mounted on a salinated slide, were permeablized with 2% TRITON® X-100 (20 minutes at room temperature) and then incubated for nick end-labeling for 2 hours at 37° C. using 0.32 U/μl TdT (Boehringer Mannheim, cat# 220582) and 2 μM digoxigenin-11-dUTP (Boehringer Mannheim, cat# 1573152) in a final volume of 40 μl. The tissues were incubated with anti-digoxigenin antibody (Boehringer Mannheim, cat# 1333062) diluted 500-fold, and processed for immunocytochemistry using standard procedures (Hsu et al., supra).
The damage to the hippocampus caused by KA was initially examined by Nissl's stain. The KA-induced cell loss caused either a breach of staining of the pyramidal neurons in the CA3 region or a diffuse sparse staining throughout the CA1 subfield. […] Groups of small pyknotic nuclei and positively TUNEL-labeled cells were found in the hippocampal CA3 subfield devoid of Nissl's staining. […] Since the TUNEL method and the pyknosis morphology only indicated the extent of cell damage at one time point of a dynamic process, immunostaining of damage-induced GFAP was also used as an independent assessment of the extent of cell destruction in the hippocampus. Consistent with the patterns of Nissl's, toluidine, and TUNEL staining, an increased number of strongly GFAP-labeled astrocytes was found either in the hippocampal CA3 or CAl regions. Thus, a combination of Nissl's stain, GFAP immunocytochemistry, TUNEL method, and toluidine stain of semithin sections was used to classify the KA-induced damage in the mouse hippocampus.
A total of 17 wild-type and 18 JNK3(−/−) mice were examined. The table was compiled from two sets of data. First, wild-type (n=11) and JNK3 (−/−) (n=10) mice were sacrificed on the fifth day after a single injection of KA (30 mg/kg, i.p.). Second, wild-type (n=6) and JNK3 (−/−) (n=8) mice received an injection of KA (30 mg/kg, i. p.) for five consecutive days and examined two days following the final injection. […] The ratio of no cell loss/CA3 lesion/CA3+CA1 lesion was 2/7/2 in the single-injection experiments, and 2/2/2 in the multiple injection experiments.

For data set [4], the system named is AP-1 transcriptional activity. Nature of the data set: KA-induced AP-1 transcriptional activity (luciferase assay, AP1-luc mice). The conditions noted are these: KA 30 mg/kg i.p. The text has this:
Since the phosphorylation of c-Jun is an important initial event during the induction of AP-1 transcriptional activity (Whitemarsh et al., supra; Yang et al., supra), whether the observed attenuation of c-Jun phosphorylation would lead to decreased induction of AP-1 transcriptional activity in JNK3 (−/−) mice was examined. JNK(-1-) mice were crossed with transgenic AP-1 luciferase (AP1-luc) mice (Rincon et al., Embo. J. 13:4370-4381, 1994) and progeny back crossed. The JNK3(−/−)/API-Luc(−/+) mice were used in experiments with JNK3(+/+) mice to compare the level of KA-induced AP-1 transcriptional activity in the presence or absence of JNK3. The AP1-luc mice contain the firefly luciferase gene under the control of four copies of a consensus AP-1 binding site in the context of the minimal rat prolactin promoter. It has been established that the expression of luciferase in these mice is due to the presence of the AP-1 regulatory element.
In the luciferase assay, mice were sacrificed at intervals after injection of KA (30 mg/kg, i.p.), and relative luciferase activity compared with that detected in hippocampal lysates obtained from mice injected with vehicle (saline). Mice were decapitated, brains were dissected, and brain tissues were immediately lysed in buffer containing 25 mM Hepes pH 7.4, 1% TRITON®X-100, 1 mM EDTA, 1 mM phenylmethyl sulfonyl fluoride, and 10 μg/ml leupeptin (Promega, Madison, Wis.). Luciferase activity was measured as described in Rincon and Flavell (Embo. J. 13:4370-4381, 1994). The injection of KA (30 mg/kg, i.p.) caused a large induction of AP-1 transcriptional activity in the hippocampus of wild-type mice, as evidenced by the induction of luciferase activity.
The relative luciferase activity in the hippocampus and cerebellum prepared from wild-type (+/+) and JNK3 (−/−) mice was measured following KA injection. Each time point represents the mean of three to five (+SEM) individual animals. […]

The test system of data set [5] is mice. Description: KA-induced seizures in wild-type and JNK3(−/−) mice. The protocol: JNK3(−/−) mice and their wild-type littermates were injected intraperitoneally (i.p.) with 30 mg/kg KA to induce seizures (Ben-Ari, supra). In wild-type mice, the administration of KA first induced “staring spells” with abnormal body posture, then progressed to head nodding (“wet-dog shakes”), fore-paw tremor, rearing, loss of postural control, and eventually, continuous convulsions. […] Wild-type and heterozygous mice developed motor symptoms of seizures, including rearing, at 30 to 40 minutes post-injection. The JNK3 (−/−) mice, in contrast, developed much milder symptoms, mainly consisting of “staring” spells and occasional myoclonic tremors. […] Further, JNK3(−/−) mice recovered from the drug administration more rapidly than wild-type mice (FIG. 7). Seizure classifications as shown in FIGS. 7 and 8 are: 1, arrest of motion; 2, myoclonic jerks of the head and neck, with brief twitching movements; 3, unilateral clonic activity; 4, bilateral forelimb tonic and clonic activity; and 5, generalized tonic-clonic activity with loss of postural tone, often resulting in death.

Data set [6] relates to mice. Nature of the data set: Pentetrazole (PTZ)-induced seizures in wild-type and JNK3(−/−) mice. The text has this:
Since the resistance to KA-induced seizures varied between littermates (+/+ and +/− are less resistant than −/− mice), the observed differential susceptibility cannot be attributed to a difference between mouse strains (Schauwecker and Steward, Proc. Nat. Acad. Sci. USA 94:4103-4108, 1997). However, the resistance of JNK3 deficient mice to KA-induced seizures could be due to decreased drug penetration across the blood-brain barrier or an increased GABA (gamma-aminobutyric acid) inhibitory postsynaptic potential (IPSP), or the ablation of a specific signal transduction pathway mediated by the JNK3 protein kinase. To distinguish between these possibilities, the response of JNK3 (−/−) and wild-type mice to another epileptogenic agent, pentetrazole (PTZ) (Sigma), was examined. PTZ was selected due to its ability to induce seizures by blocking the GABA-IPSPs (Ben-Ari et al., Neurosci. 6:1361-1391, 1981).
Thus, the differential susceptibility to KA toxicity in JNK3(−/−) mice can neither be explained as a consequence of poor drug delivery to the nervous system nor by potent GABA-IPSPs in the neural circuit. Furthermore, we examined the expression of the kainate-type glutamate receptor subunits GluR5-7 (Pharmingen cat. No. 60006E) by immunocytochemistry using standard methods.

Setting [7] is: KA 30 mg/kg i.p., JNK3 genotype +/+.
The mark [8] stands for this setting: KA 30 mg/kg i.p., JNK3 genotype −/−.
Where [9] appears, read: KA 30 mg/kg i.p., wild-type mice.

`C=C(C)[C@H]1CN[C@H](C(=O)O)[C@H]1CC(=O)O` [KA, kainic acid]: the “phosphorylated c-Jun in hippocampus” value in data set [1] (JNK3(−/−) mice) was “only a trace amount”. The “phosphorylated c-Jun in the dentate gyrus and CA3/CA4 region of the hippocampus” value in data set [1] (wild-type mice) was “high level of phosphorylated c-Jun”. Further, in data set [2], the “animals with cell damage (fraction)” value is recorded as 2/15. The “animals with cell damage” value in data set [2] (p<0.005) was 13%. In addition, in data set [3] (KA 30 mg/kg i.p., JNK3(−/−) mice (n=18)), the hippocampal damage entry was “no apparent hippocampal damage”. In addition, in data set [3] (setting [7]), the “Including CA1 cell loss” value was 4 number of animals, the “No perceivable cell loss” value is 4 number of animals and the “Selective CA3 cell loss” value is given as 9 number of animals. In data set [3] (setting [8]), the “Including CA1 cell loss” value is given as 0 number of animals, the “No perceivable cell loss” value is recorded as 18 number of animals and the “Selective CA3 cell loss” value is on record as 0 number of animals. In addition, in data set [3] (setting [9]), the “animals with damage of the hippocampal CA3 region” value was 53%, the “animals with damage of the hippocampal CA3 region (fraction)” value is listed as 9/17, the “animals with massive cell loss throughout the entire hippocampal CA1 region” value turned out to be 24% and the “animals with massive cell loss throughout the entire hippocampal CA1 region (fraction)” value is 4/17. In data set [3] (wild-type mice, KA 30 mg/kg i.p. for five consecutive days, examined two days after final injection), the “ratio of no cell loss/CA3 lesion/CA3+CA1 lesion” value is on record as 2/2/2. Besides, the “ratio of no cell loss/CA3 lesion/CA3+CA1 lesion” value in data set [3] (wild-type mice, single injection of KA 30 mg/kg i.p., sacrificed on the fifth day) is 2/7/2. In data set [4] (15 hours after injection), the “AP-1 activity in hippocampus, wild-type compared with JNK3(−/−) mice” value is “approximately four-fold greater”. Besides, the “AP-1 activity in hippocampus, wild-type compared with JNK3(−/−) mice” value in data set [4] (three days after injection) was “more than six times higher”. Also, the “time of peak luciferase activity in hippocampus” value in data set [4] (wild-type AP1-luc mice) was “three days”. Also, the seizure severity entry in data set [5] (KA 30 mg/kg i.p., JNK3(−/−) mice) is listed as “did not develop grand mal seizures”. In addition, in data set [5] (setting [9]), the “time at which seizure activities subsided” value is “one hour after injection”. Moreover, the survival entry in data set [5] (KA 45 mg/kg i.p., JNK3(−/−) mice) is listed as “all of the JNK3(−/−) mice survived”. Further, the “mice that died from continuous tonic clonic convulsions” value in data set [5] (KA 45 mg/kg i.p., wild-type mice) is “more than 60%”.

On to `C1CCc2nnnn2CC1` [PTZ, pentetrazole], for which the “seizure severity, JNK3(−/−) mice versus wild-type littermates” value in data set [6] (PTZ 30, 40, 50, 60 mg/kg i.p.) is “comparable severity”. For the same compound, in data set [6] (PTZ i.p.), the “time to abrupt general tonic-clonic seizures after injection” value is “within five minutes”.
